86 compounds from a melting point compilation (Tetko et al.; mined from patent text by program, amines drawn as free bases though some values may be those of a salt) can be followed below.

`CCCCCC(=O)c1c(CBr)nc2cc(OC)c(OC)cc2c1-c1ccc(OC)c(OC)c1` gave a melting point of 146 to 147 °C.
The figure for `O=C(c1ccc(F)cc1)C1CCN(C(=O)c2ccc([N+](=O)[O-])cc2)CC1` is 168 to 170 °C; for `CC(=O)Nc1cccc(-c2nc3sccn3c2-c2ccnc(N[C@@H]3CCCN(S(=O)(=O)c4ccc(Cl)cc4)C3)n2)c1` it is 169 to 174 °C; for `COC(=O)c1ccc2c3cccc4cccc(c5ccc(C(=O)N(C)c6cc(C(C)(C)C)ccc6C(C)(C)C)c1c25)c43` it is 297 to 298 °C.
The figure for `COc1ccc(-c2cc(=O)n(CCC(=O)NCc3ccccc3)nc2-c2ccc(OC)cc2)cc1` is 135 to 137 °C.
`CCCCc1oc2ccccc2c1C(=O)N(Cc1ccccc1)Cc1ccc2c(Br)c(OCC#N)ccc2c1` showed a melting point of 105 to 110 °C.
The figure for `O=C(NCC1CCN(CCc2ccccn2)CC1)c1ccc2nonc2c1` is 149 to 151 °C.
`O=C(O)c1ccc2c(c1)nc(-c1ccc(OC(c3cccc(F)c3)c3cccc(F)c3)cc1F)n2C1CCCCC1` displayed a melting point of 242 to 243 °C.
`CC(C)C1=NC(NC(=O)CCc2ccc(Cl)cc2Cl)C(=O)N(C)c2ccccc21` (stereo unspecified) came in with a melting point of 173 to 174 °C.
The figure for `COc1cc(CBr)ccc1OC(=O)c1ccccc1` is 86 to 88 °C; for `O=Cc1c2n(c3cc(Br)ccc13)CCNCC2` it is 186 to 188 °C.
For `Cc1ccc(-c2nc(CCl)c(C)o2)cc1`, the melting point lay in the range of 91 to 93 °C.
In turn, `COC(=O)c1cc(-c2nc(COc3ccc(CO)cc3OC)c(C)o2)ccc1OS(C)(=O)=O` displayed a melting point of 126 to 127 °C.
Compound `Cc1nnc2n1-c1ccc(Cl)cc1C(c1ccccc1)=CC2` came in with a melting point of 235 °C.
The compound `CC(C#Cc1cccc(C2=NCC(c3ccccc3)O2)c1)N(O)C(N)=O` (stereo unspecified) had a melting point of 145 to 146 °C.
In the case of `COc1cc(CCl)ccc1OCCCCOc1ccc(CCl)cc1OC` it was 116 to 118 °C.
In the case of `CN(CCN1CCC[C@@H](C(=O)O)C1)C1c2ccccc2CCc2ccccc21` it was 187 to 190 °C; in that of `COc1cc2c(Nc3cccc(C)c3)ncnc2cc1OC(C)C`, 218 to 221 °C; in that of `CC1=C(C(=O)OC(C)(C)C)C(c2ccc(F)c(Br)c2)C(C(=O)OC(C)(C)C)=C(C)N1`, 171 to 172 °C.
The figure for `Cc1ccc(S(=O)(=O)N2c3ccc(Cl)cc3C(O)(c3ccccc3Cl)C2C(=O)N(C)C)cc1` (stereo unspecified) is 220 to 221 °C; for `Fc1ccc2c(c1)nc(Cl)c1nncn12` it is 305 to 308 °C; for `CC(C)(C)OC(=O)N1CCC2(CC1)C(=O)N(CC(=O)O)CN2C1CCCCC1` it is 173 to 174 °C.
For `COC(=O)c1ccc(N2CCCC2)c(NC(=O)C(CSC(C)=O)Cc2ccccc2)c1` (stereo unspecified), the melting point is 72 to 75 °C.
The figure for `CC(C)(C)OC(=O)CNC(=O)C(=O)c1cn(Cc2ccccc2)c2ccc(-c3ccc(OC(F)(F)F)cc3)cc12` is 167 to 168 °C.
As for `O=C(Nc1ncco1)c1c(C(F)(F)F)nc2c(C(F)(F)F)cccc2c1O`, the melting point turned out to be 258 °C.
Turning to `COC(=O)c1ccc(NC2CCCCC2)cc1C(=O)OC`, the melting point was 217 to 219 °C.
In the case of `Oc1ccc(-c2noc(C3CC3)c2-c2ccccc2)cc1` it was 197 to 200 °C.
In the case of `CN(CCCNC(=O)COc1nc2ccccc2s1)Cc1ccc(Cl)c(Cl)c1` it was 113 to 115 °C; in that of `O=c1c2ccccc2sn1CCN1CC=C(c2ccccc2)CC1`, 90 to 92 °C; in that of `Ic1ccc2c3c(cccc13)C(=NCc1ccccc1)N2`, 160 to 163 °C.
The figure for `CCOC(=O)c1cc(OCc2ccccc2)c2c(Cl)cc(Cl)cc2n1` is 146 to 147 °C.
`CN(C)C(=O)Nc1cc(C(F)(F)F)on1` had a melting point of 126 °C.
Take `COC(=O)C(C)(C)Cc1ccc(OCc2oc(-c3ccc(C(F)(F)F)cc3)cc2C(=O)O)cc1`: the melting point lay within 153 to 155 °C.
In the case of `O=[N+]([O-])c1cc(Cl)c(CO)c(Cl)c1` it was 111 to 114 °C; in that of `CCOC(=O)COc1ccc(SCc2ccc3nc(-c4ccc(C(F)(F)F)cc4)sc3c2)cc1C`, 176 to 177 °C; in that of `CCC1(O)CC(=O)OCc2c1ccn(Cc1cc3cc4c(cc3nc1I)OCCO4)c2=O` (stereo unspecified), 165 to 167 °C.
`CN(N)C(=O)N=C1CCC(CC2CCC(=NC(=O)N(C)N)CC2)CC1` (stereo unspecified) yielded a melting point of 187 to 193 °C.
The figure for `CCOC(=O)[C@H]1CC[C@@H](c2ccccc2)N1C(=O)CNC(=O)Nc1cccc(C)c1` (racemic) is 115 °C.
The figure for `Cc1nc2sc(S(N)(=O)=O)cc2c(=O)n1-c1ccccc1Cl` is 251 °C.
The figure for `O=C1NC(=O)C(c2ccc3cc(-c4ccc(O)c(C56CC7CC(CC(C7)C5)C6)c4)ccc3c2)S1` (stereo unspecified) is 312 to 314 °C; for `O=C(O)C(CCO)N1CCCC1=O` (stereo unspecified) it is 123 to 124 °C; for `COc1ccc(-c2ccc3c(c2)CC[C@H]2N(C)C(=O)CC[C@]32C)cc1` it is 150 °C.
With `CS(=O)(=O)c1ccc(-c2ccc(Cl)nc2-c2ccc(F)cc2)cc1`, the melting point was 192 °C.
For the compound `Cc1c[nH]c(CCC(=O)O)c1`, the melting point fell in the range of 109 to 112 °C.
In the case of `O=C(CN1CCCC1)Nc1ccc(Br)cc1` it was 60 to 63 °C; in that of `CC(C)(C)c1ccc(C(=O)Nc2ccc([N+](=O)[O-])cc2C(=O)O)cc1`, 245 to 249 °C; in that of `Cc1c(OCCCl)cccc1[N+](=O)[O-]`, 58 to 59 °C.
The figure for `Cc1oc(-c2ccncc2)nc1COc1ccc(Cn2cc(CCC(=O)O)c(-c3ccccc3)n2)cc1` is 154 to 155 °C.
For `CCCCCCCCCCCCc1ccc(S(=O)(=O)Nc2nnc(CCCCCNC)s2)cc1`, the melting point was 158 to 160 °C.
In the case of `O=C(C=CC1CCCCC1)NCCc1cccc(OCc2ccccc2)c1` it was 98 to 100 °C; in that of `COC(=O)C1C=CCN2C(=O)C(CCO)(Cc3ccccc3)C(=O)N12` (stereo unspecified), 148 to 149 °C.
Consider `COc1ccc(-c2c(Cl)c(CNC(C)(C)C)nc3sc4c(c23)CCN(C(=O)c2ccccc2)C4)cc1OC`, for which the melting point fell in the range of 204 to 205 °C.
In the case of `CCCCCCCCCCCCOc1ccc([N+](=O)[O-])cc1` it was 51.5 to 53 °C; in that of `CC(O)(CC(=O)O)c1ccc(-c2ccc(F)cc2F)cc1` (stereo unspecified), 121 to 123 °C; in that of `O=C(OCc1ccccc1)ON1C(=O)CC2(CCN(C(=O)OCc3ccccc3)CC2)C1=O`, 114 °C.
The figure for `Cc1cc(S(=O)(=O)Nc2ccc(Cl)cc2)c2c(C)ccc(C(C)C)cc1-2` is 134 to 135 °C; for `O=C1NC(=O)C2(N1)C(=O)N(Cc1ccc(Cl)c(Cl)c1)c1ccccc12` (stereo unspecified) it is 269 to 271 °C; for `O=c1[nH]nc(-c2cccc([N+](=O)[O-])c2)c2ncccc12` it is 302 °C.
In the case of `Cc1noc(NC(=O)N2CCN(c3nccc(-c4ccc(F)cc4)n3)CC2)c1C` it was 226 to 227 °C; in that of `c1ccc(Nc2nsc3ccccc23)nc1`, 247 to 249 °C.
`NCCc1cccc(N2C(=O)N(c3ccc(C(F)(F)F)cc3Cl)Cc3cnc(Nc4ccccc4)nc32)c1` had a melting point of 102 °C.
In the case of `S=C(NCCCC1(Cl)CC=CS1)Nc1ccccn1` (stereo unspecified) it was 116 to 122 °C; in that of `Cc1[nH]c(=O)sc1C(=O)c1ccc(F)cc1`, 209 to 210 °C.
The figure for `Cc1noc(NS(=O)(=O)c2ccccc2)c1-c1ccccc1` is 124 to 126 °C.
As to `COc1ccc2c(c1)C(=O)N(CCCN(C)CCN1C(=O)c3ccccc3C(C)(C)C1=O)C(=O)C2(C)C`, the melting point is 158 °C.
`COc1ccc2sc3c(c2c1)OC(C)CNC3=O` (stereo unspecified) returned a melting point of 185 to 186 °C.
The figure for `Cc1ccc(C=NNC(=O)OC(C)(C)C)cc1C` is 168 to 169 °C.
Turning to `CNCC(O)c1ccc(C)o1` (stereo unspecified), the melting point is 40 to 45 °C.
The figure for `Cc1nnc2n1-c1sc(CC(=O)N3CCOCC3)cc1C(c1ccccc1Cl)=NC2` is 143 to 144 °C; for `Cc1ccc2c(C(=O)C3CSC(c4cccnc4)N3)c[nH]c2c1` (stereo unspecified) it is 132 to 138 °C.
As to `CC(C)Oc1ccc2c(c1)Oc1cccc(F)c1S2(=O)=O`, the melting point lay in the range of 151 to 152 °C.
The figure for `CC(C)(C)[Si](C)(C)OCCn1ccc(N)n1` is 54 to 55 °C; for `CC(C)(C)C1=CC(=Nc2ccc(CCC(=O)O)cc2)C=C(C(C)(C)C)C1=O` it is 165 to 167 °C; for `CC(C)(C)C(=NO)C(C)(C)CCCCCCC(C)(C)C(=NO)C(C)(C)C` it is 203 to 209 °C.
Compound `CC(C)c1cc(C(C)C)c2c(c1)C1(N)C(=O)c3ccccc3C1(O)O2` (stereo unspecified) came in with a melting point of 199 to 200 °C.
As to `O=S(=O)(N[C@H](Cc1ccc(C(F)(F)F)cc1)[C@@H](O)c1ccc(F)cc1)c1cccc2ccccc12` (racemic), the melting point is 176 to 177 °C.
On to `O=C(Nc1ccccc1)c1cccc(Oc2ccccc2)c1`, for which the melting point was 111 to 112 °C.
In the case of `CNS(=O)(=O)c1ccc(C2CCN(c3ccncc3)CC2)cc1` it was 225 to 228 °C; in that of `CS(=O)(=O)OCCCC(c1ccccc1)c1ccccc1`, 85 to 88 °C.
Regarding `COc1ccc(C(=O)Nc2ccc(N3CCCC3)cc2C(C)=O)cc1`, the melting point lay within 174 to 175 °C.
Compound `CCOC(=O)C(CC)Oc1ccc(-c2nc(-c3ccc(OC(CC)C(=O)OCC)cc3O)nc(-c3ccc(OC(CC)C(=O)OCC)cc3O)n2)c(O)c1` (stereo unspecified) returned a melting point of 101 to 105 °C.
The compound `O=C(C(=Cc1ccc(Cl)cc1)c1ccc(Cl)cc1)c1ccc(O)cc1` had a melting point of 132 to 136 °C.
As for `Nc1ccc(CC2CCN(S(=O)(=O)N3CCCCC3)CC2)cc1`, the melting point lay in the range of 144 to 145 °C.
In the case of `CC1(C)COC(=O)N1c1nc(-c2ccc([N+](=O)[O-])cc2)cs1` it was 176 to 179 °C; in that of `CCOC(=O)CSc1nccc(NCCc2ccc(Cl)cc2)n1`, 58 to 61 °C.
In the case of `CC(C)Sc1c(C(N)=O)sc2ccccc12` it was 183 to 185 °C.
